Consider one molecule from ChEMBL document CHEMBL5537135, “Novel antimicrobial peptides modified with fluorinated sulfono-γ-AA having high stability and targeting multidrug-resistant bacteria infections” (Eur J Med Chem, 2024).

For experiment [1], the system named is Bacillus subtilis. As to the kind of experiment: Antimicrobial activity against Bacillus subtilis ATCC 23857 assessed as inhibition of visible bacterial growth incubated for 18 hrs by broth-dilution method. In kind it is functional.
Experiment [2] deals with Staphylococcus aureus. Nature of the experiment: Antibacterial activity against methicillin-resistant Staphylococcus aureus ATCC 33591 infected in full-thickness wound BALB/c mouse model assessed as reduction in inflammatory infiltration at 1 mg/kg, ip administered for 1 to 48 hrs and measured after 3 days. It counts as functional, organism-based. The following applies: time 1-120 hrs.

In experiment [3] the test system is Escherichia coli. Nature of the experiment: Antimicrobial activity against Escherichia coli ATCC 25922 assessed as inhibition of visible bacterial growth incubated for 18 hrs by broth-dilution method. In kind it is functional.
The test system of experiment [4] is Salmonella typhimurium. Nature of the experiment: Antimicrobial activity against Salmonella typhimurium ATCC 14028 assessed as inhibition of visible bacterial growth incubated for 18 hrs by broth-dilution method. In kind it is functional, Salmonella enterica subsp. enterica serovar Typhimurium. The following applies: Salmonella enterica.
Experiment [5] concerns Pseudomonas aeruginosa. As to the kind of experiment: Antimicrobial activity against Pseudomonas aeruginosa ATCC 27853 assessed as inhibition of visible bacterial growth incubated for 18 hrs by broth-dilution method. In kind it is functional.
In experiment [6] the test system is Acinetobacter baumannii. Nature of the experiment: Antimicrobial activity against Acinetobacter baumannii ATCC 19606 assessed as inhibition of visible bacterial growth incubated for 18 hrs by broth-dilution method. In kind it is functional.

≈ marks a conversion by molar mass, not a printed value. Calls of active or inactive are those of the source. The calls are words filed in the database; no cut-off is given here.

Regarding `CN[C@H](CC(C)C)C(=O)N[C@H]1C(=O)N[C@@H](CC(N)=O)C(=O)N[C@H]2C(=O)N[C@H]3C(=O)N[C@H](C(=O)N[C@H](C(=O)O)c4cc(O)cc(O)c4-c4cc3ccc4O)[C@H](O)c3ccc(c(Cl)c3)Oc3cc2cc(c3O[C@@H]2O[C@H](CO)[C@@H](O)[C@H](O)[C@H]2O[C@H]2C[C@](C)(N)[C@H](O)[C@H](C)O2)Oc2ccc(cc2Cl)[C@H]1O` [VANCOMYCIN], the MIC in experiment [1] was 1 µg/mL (≈ 0.69 µM); in experiment [3] it was 256 µg/mL (≈ 177 µM); in experiment [4], 128 µg/mL (≈ 88.3 µM); in experiment [5], 256 µg/mL (≈ 177 µM); in experiment [6], 32 µg/mL (≈ 22.1 µM). Moreover, in experiment [2], the result was Active.
